Source: patent US20130096028A1, “CELL CAPABLE OF EXPRESSING TSLP CONSTANTLY AND AT HIGH LEVEL, AND METHOD FOR SCREENING FOR TSLP MODULATOR UTILIZING THE CELL” (TOHOKU UNIVERSITY, priority 2010, published 2013)

How the values were obtained:
human TSLP mRNA = conditions: human airway epithelial cell lines; cited from earlier work
[1] = test system: TSLP production of KCMH-1 cell; test: TSLP production of KCMH-1 cells, TSLP in culture supernatant quantified by ELISA; type: cell-based, mouse; conditions: BAY11-7082 10 μM, 24 hours, ELISA (FIG. 5)
Procedure: The KCMH-1 cells were suspended at a concentration of 1×10^5 cells/ml in an MEMU medium containing 10% FBS. 0.5 ml of the cell suspension was inoculated to each well of a 24-well cluster dish. 24 hours later, the medium was removed, and the cells were washed with phosphate-buffered saline (PBS). Then, 0.5 ml of an MEMU medium containing 10% FBS and each concentration of dexamethasone (0.1 or 1 μM) or FK506 ([…]) was added to the cells. 24 hours later, the culture solution was collected, and TSLP in the supernatant was quantified by ELISA (FIG. 2).
The KCMH-1 cells were suspended at a concentration of 1×10^5 cells/ml in an MEMU medium containing 10% FBS. 0.5 ml of the cell suspension was inoculated to each well of a 24-well cluster dish. […] 24 hours later, the culture solution was collected, and TSLP in the supernatant was quantified by ELISA (FIG. 3).
The KCMH-1 cells were suspended at a concentration of 1×10^5 cells/ml in an MEMU medium containing 10% FBS. […] 24 hours later, the culture solution was collected, and TSLP in the supernatant was quantified by ELISA (FIG. 4).
The KCMH-1 cells were suspended at a concentration of 1×10^5 cells/ml in an MEMU medium containing 10% FBS. […] 24 hours later, the culture solution was collected, and TSLP in the supernatant was quantified by ELISA (FIG. 5).

SMILES	expression of human TSLP mRNA by IL-1β (human TSLP mRNA)	TSLP production in the KCMH-1 cells [1]
CC1=C(/C=C/C(C)=C\C=C\C(C)=C\C(=O)O)C(C)(C)CCC1 [9-cis-retinoic acid]	inhibits	–
Cc1ccc(S(=O)(=O)/C=C/C#N)cc1 [BAY11-7082]	–	partially inhibited
